Measured values from patent US20100144855A1, “APPLICATION OF SEDOISOPROSAN FOR PREPARATION OF MEDICINE FOR TREATMENT OF HUMAN HBeAg POSITIVE CHRONIC HEPATITIS B” (priority 2008, published 2010).

What was measured:
[1] = tested on: duck hepatitis B virus (DHBV); details: cited from earlier work
[2] = animal experiments; cited from earlier work
hepatitis B virus = test: clinical trial, curative effect in HBeAg positive chronic hepatitis B patients; assay type: in vivo, human
Description: The clinical trial protocol was designed according to the randomized, double-blind and controlled principle. The clinical efficacy and the safety of sedoisoprosan for therapy on human HBeAg positive chronic hepatitis B is defined according to the changes of vivo HBV-DNA level, ALT level, vital signs, blood routine indexes, blood biochemical indexes and thyroid function indexes before and after administration and the incidence of adverse events.
The clinical trials were performed on adult chronic hepatitis B patients who were HBsAg positive, HBeAg positive and HBsAb negative, with HBV-DNA levels more than 10^5 copies/ml and increased ALT.
Patients enrolled in the clinical trials must meet all the following criteria: signature of informed consent forms; age ≧18 years and ≦65 years; HBsAg positive, HBeAg positive and HBsAb negative for over 6 months; HBV-DNA level ≧10^5 copies/ml; increase in serum ALT level in 6 months before the first administration (ULN<ALT≦10×ULN for twice, wherein ALT≧2×ULN for once); negative pregnancy tests for women of child-bearing age in 24 hours before the first administration; and effective contraception measures used during the clinical trials and within 3 months after the therapy.
Since the effective doses of sedoisoprosan for reducing serum DHBV-DNA levels of ducks infected with hepatitis B virus was 200 mg/kg and 100 mg/kg (intraperitoneal injection, twice a day), doses of sedoisoprosan for the clinical trials may be between 200 mg and 800 mg (intravenous drip, once a day). […] For the purpose of the present invention, three doses of sedoisoprosan, 200 mg, 400 mg and 800 mg in 250ml 5% glucose solution (intravenous drip, within 60 mins), were used in the clinical trials.
According to the traditional treatment for chronic hepatitis B with interferon, patients enrolled in the clinical trials were administrated with sedoisoprosan once a day continuously for 4 weeks, then 3 times a week continuously for 8 weeks.
Three doses of sedoisoprosan, 200 mg, 400 mg and 800 mg respectively, were used for treatment. Mannite of 800 mg was used for negative control.
Patients enrolled in the clinical trials were randomly divided into four groups, i.e. negative control group (800 mg mannite), low dose group (200 mg sedoisoprosan with 600 mg mannite), median dose group (400 mg sedoisoprosan with 400 mg mannite) and high dose group (800 mg sedoisoprosan) respectively. Each patient was assigned with a CRF No. which was randomly generated by computer.
Baseline assessment was performed on the day of the first administration, which included medical examination, hematological examination, blood biochemical examination, thyroid function examination, ALT examination and quantitative detection of HBV-DNA. The medical examination included the examination of stature, avoirdupois, blood pressure and pulse rate. The hematological examination included the leucocyte, neutrophil, erythrocyte, platelet and haemoglobin counts, and the prothrombin time. The blood biochemical examination included the examination of serum potassium, sodium, GOT, total bilirubin, AKP, total protein, albumin, total cholesterol, triglyceride, urea nitrogen, creatinine and glucose.
The patients were followed up at the 1st, 2nd, 4th, 8th and 12th week of the treatment. The blood biochemical examination and the quantitative detection of HBV-DNA was performed at the 2nd, 4th, 8th and 12th week of the treatment, and the adverse events were recorded at the same time. The thyroid function examination was performed at the 12th week of the treatment.
The primary curative effect index was the virologic response rate at the 12th week of the treatment, i.e. the proportion of patients having HBV-DNA levels not more than 2×10^4 copies/ml or having a decline in HBV-DNA levels of 2 log10 copies/ml compared to the baseline value. […]

[3] = high dose group (800 mg sedoisoprosan), after 12 weeks' treatment
[4] = high dose group, after 12 weeks' treatment
[5] = low dose group (200 mg sedoisoprosan with 600 mg mannite), after 12 weeks' treatment
[6] = median dose group (400 mg sedoisoprosan with 400 mg mannite), after 12 weeks' treatment

## CC1(C)OC2C3COC(CO)(O3)C(O)C2O1 (stereo not drawn) [sedoisoprosan, isopropylidene sedoheptulosan]
[1]; animal experiments
  DHBV-DNA level: reduce
[1]; ducks infected with hepatitis B virus, intraperitoneal 200 mg/kg or 100 mg/kg twice a day for 14 days, seventh and fourteenth day
  serum DHBV-DNA levels: obviously decreased
[2]
  activity of ACP and TNE: enhance
  immune system: regulate
Hepatitis B virus; 200, 400, 800 mg, after 12 weeks' treatment
  HBV-DNA levels, dose-effect relationship: tended to decrease more as the doses increased
Hepatitis B virus; high dose group (800 mg sedoisoprosan), 16 cases
  The 12th Week Decrease Values of lg(HBV-DNA), mean ± SD: 0.96 ± 1.41
Hepatitis B virus; [3]
  Biochemical Response Rates: 18.75%
  Combined Response Rates: 6.25%
  HBeAg Negative Conversion Rates: 6.25%
Hepatitis B virus; high dose group (800 mg sedoisoprosan), the 4th week, 16 cases
  Virologic Response Rate: 0.00%
Hepatitis B virus; high dose group (800 mg sedoisoprosan), the 8th week, 16 cases
  Virologic Response Rate: 12.50%
Hepatitis B virus; high dose group (800 mg sedoisoprosan), the 12th week, 16 cases
  Virologic Response Rate: 18.75%
Hepatitis B virus; [4]
  cases of HBeAg negative conversion: one
  decrease values of lg(HBV-DNA), comparison within the group: significant differences
Hepatitis B virus; human HBeAg positive chronic hepatitis B
  effect on hepatitis B virus (conclusion of the clinical trials): effectively inhibit hepatitis B virus
Hepatitis B virus; low dose group (200 mg sedoisoprosan with 600 mg mannite), 13 cases
  The 12th Week Decrease Values of lg(HBV-DNA), mean ± SD: 0.52 ± 1.28
Hepatitis B virus; [5]
  Biochemical Response Rates: 6.25%
  Combined Response Rates: 0%
  HBeAg Negative Conversion Rates: 0%
Hepatitis B virus; low dose group (200 mg sedoisoprosan with 600 mg mannite), the 4th week, 13 cases
  Virologic Response Rate: 15.38%
Hepatitis B virus; low dose group (200 mg sedoisoprosan with 600 mg mannite), the 8th week, 13 cases
  Virologic Response Rate: 15.38%
Hepatitis B virus; low dose group (200 mg sedoisoprosan with 600 mg mannite), the 12th week, 13 cases
  Virologic Response Rate: 15.38%
Hepatitis B virus; median dose group (400 mg sedoisoprosan with 400 mg mannite), 14 cases
  The 12th Week Decrease Values of lg(HBV-DNA), mean ± SD: 0.40 ± 0.90
Hepatitis B virus; [6]
  Biochemical Response Rates: 12.50%
  Combined Response Rates: 0%
  HBeAg Negative Conversion Rates: 0%
Hepatitis B virus; median dose group (400 mg sedoisoprosan with 400 mg mannite), the 4th week, 14 cases
  Virologic Response Rate: 0.00%
Hepatitis B virus; median dose group (400 mg sedoisoprosan with 400 mg mannite), the 8th week, 14 cases
  Virologic Response Rate: 0.00%
Hepatitis B virus; median dose group (400 mg sedoisoprosan with 400 mg mannite), the 12th week, 14 cases
  Virologic Response Rate: 14.29%
Hepatitis B virus; median dose group and low dose group, after 12 weeks' treatment
  decrease values of lg(HBV-DNA), comparison within the group: no significant differences
